Laboratory results published in US12589090B2, “Compounds and methods for the treatment of degenerative disorders” (Aquilus Pharmaceuticals, Inc., priority 2019, dated 2026).

What was measured:
[1] = test system: STZ-induced diabetic rats; experiment: STZ-induced diabetic rat model, tactile allodynia (Example 18); type: in vivo, Wistar rats
Protocol: (§1) Male Wistar rats (300-350 g) at the beginning of the experiment were used. A single dose (65 mg/kg, i.p.) of Streptozotocin (STZ) with 230 mg/kg (i.p) of nicotinamide were used for induction of diabetes in rats. The STZ was freshly dissolved in citrate buffer. Age matched control rats received the equal volume of the citrate buffer only. Forty days after injection of either STZ or citrate buffer, the rats were tested for diabetes mellitus (DM) using a drop of blood from the tail vein. The estimation of blood glucose level was made using OneTouch Select® Glucometer (LifeScan, Inc., USA). Rats with plasma glucose level>8 mmol/1 (145 mg/dl) were considered as diabetic. Following the diagnosis of DM, age matched healthy control and STZ-induced diabetic rats were divided randomly into four groups each containing six rats. Glucose level was estimated on weekly basis during the experiment.
(§2) Experimental design and drug treatment: Six weeks after the diabetic induction age matched healthy control and STZ-induced diabetic rats were divided randomly into four groups each containing six rats: naïve rats, vehicle (0.5% methylcellulose) treated DM group, 70 mg/kg (in 0.5% methylcellulose) Compound 5-treated DM group, 140 mg/kg (in 0.5% methylcellulose) Compound 5-treated DM group.
Behavioral testing: Tactile allodynia. […] The paw withdrawal thresholds were determined. […] The psychophysical 50% threshold was then calculated.
Data analysis: The results are presented as mean±SEM. In chronic pain experiment, four rats were excluded from the statistical analysis because the paw withdrawal threshold was >8 g (criterion taken from the study. Paw withdrawal threshold data were subjected to analysis of variance (ANOVA, General Linear Model procedure) with Dunnett's post hoc test was applied for between-group pair wise comparisons. Effects of Compound 5 on immunohistochemistry parameters were analyzed by one-way ANOVA (factors: Compound 5 treatment) followed by the Dunnett's test. Data were analyzed using SAS-STAT (SAS v.9.4, SAS Institute Inc., Cary, NC, USA). Data were considered significant at P<0.05.

caspase-3 = experiment: Caspase-3 immunohistochemistry (optical density) in spinal cord and sciatic nerve of STZ diabetic rats (Example 18); type: in vivo, Wistar rats
Protocol: Sections from the biopsy specimens (brain and spinal tissue) were formalin-fixed and paraffin-embedded. For IHC examination, slides from the spinal cord and sciatic nervous were evaluated for caspase-3 (cas-3). Serial 3-5-μm thick sections were cut from paraffin embedded tissue blocks. For subsequent IHC staining glass slices were exposed to hot unmasking fluidized citrate buffer pH 6.0 for 15-18 min. After cooling, the glass with the slice was transferred into phosphate-buffered saline (PBS) pH 7.4. The sections were deparaffinized and then rehydrated in alcohol to tris-buffered saline. Endogenous peroxidase activity was blocked using 3% hydrogen peroxide followed by a protein block with 5% goat serum.
Affinity purified monoclonal IgG1, Caspase-3 p11 antibodies (sc-271759; Santa Cruz BioTechnology Inc., Dallas, TX, USA) were used as the primary antibody and applied at a 1:50 dilution 100 μl/glass for 30 min at room temperature. […]
Immunohistochemistry: Sections from the biopsy specimens were formalin-fixed and paraffin-embedded. For immunohistochemistry (IHC) examination, slides from the spinal cord and sciatic nervous were evaluated for caspase-3. […] (4 per group) and three sections from each animal were used for quantitative immunohistochemistry (12 measuring per each group). […]

[2] = test system: STZ-induced diabetic rats; experiment: STZ-induced diabetic rat model, blood glucose concentration and HbA1c (Example 18); type: in vivo, Wistar rats
Protocol: as §1, §2

[3] = In-vivo oral rat pharmacokinetics (Example 15); conditions: male Sprague-Dawley rats, dose level 10 mg/kg, 0.5% MC, plasma, mean
Protocol: Understanding the pharmacokinetics in species typically employed in preclinical animal testing is an essential component of drug discovery. […] Procedure: Six (6) male Sprague-Dawley rats were used. Fasting was conducted at least 16 hours prior to dose administration. Food was returned at approximately 4 hours post dose. The animals were placed into 2 groups of 3 animals per group. The oral (PO) formulation for Groups 1 & 2 were prepared on the day of dosing at a target concentration of 0.5 mg/mL in 0.5% Methylcellulose (400 cps) to produce a white, homogeneous suspension. Dosing was performed as outlined in Table 1:
Whole blood samples (0.250 mL; K2EDTA anticoagulant) were collected from each animal through a jugular vein catheter. Whole blood samples were collected from all animals pre-dose, and at 0.25, 0.5, 1, 2, 4, 8, 16, and 24 hours after dose administration. All blood samples were immediately placed on ice until processing. Whole blood samples were centrifuged at 2200×g for 10 minutes in a refrigerated centrifuge (5±3° C.) to isolate plasma. The plasma samples were transferred to individual polypropylene vials and immediately placed on dry ice before storage at nominally −20±5° C. The plasma samples sometime later were then thawed and extracted and analyzed by high pressure liquid chromatography (HPLC) coupled to Mass Spectrometry (MS) (Table 2). Pharmacokinetic parameters (Table 3) were estimated using WinNonlin® pharmacokinetic software (Version No. 5.2.1) using a non-compartmental approach consistent with the PO route of administration.

[4] = Solubility testing (Example 27); type: physicochemical; conditions: for solubility in water: as the free acid
Dissociation constant = type: physicochemical

| Structure (SMILES) | tactile allodynia (paw withdrawal threshold), post hoc analysis ([1]; 70 mg/kg, 14 days treatment, p<0.05 vs. vehicle) | tactile allodynia (paw withdrawal threshold) ([1]; 140 mg/kg, 14 days treatment) | threshold of the nociceptive response (tactile allodynia) ([1]; after 14 days of treatment) | expression of caspase-3 in sciatic nerve (caspase-3; both doses (70 and 140 mg/kg), vs. vehicle-treated DM group) | caspase-3 in spinal cord (caspase-3; vs. vehicle group) | glycosylated hemoglobin (HbA1c) level ([2]; STZ diabetic rats treated during 2 weeks, vs. untreated DM rats) | blood glucose concentration ([2]; STZ diabetic rats, 70 or 140 mg/kg) | AUC(0-inf) [3] [ng·h/mL] | AUC(0-t) [3] [ng·h/mL] | Cmax [3] [ng/mL] | half-life [3] [h] | solubility in DMSO, acetone and methanol [4] | solubility in water [4] | dissociation constant (Dissociation constant) |
| --- | --- | --- | --- | --- | --- | --- | --- | --- | --- | --- | --- | --- | --- | --- |
| Cc1ccc(C#Cc2ccc(S(=O)(=O)N[C@H](Cc3c[nH]c4ccccc34)C(=O)O)s2)cc1 [Compound 5, (R)-3-(1H-Indol-3-yl)-2-(5-p-tolylethynyl-thiophene-2-sulfonylamino)-propionic acid] | confirmed the effect | tendency to the analgesic effect | significantly decreased | significant reduction | statistically significant change | not significantly changed | no significant effects | 5150 | 5120 | 1580 | 1.28 | soluble | poorly soluble | around 3.4 |
| [2H]c1[nH]c2c([2H])c([2H])c([2H])c([2H])c2c1C[C@@H](NS(=O)(=O)c1ccc(C#Cc2ccc(C)cc2)s1)C(=O)O [Compound 82] | – | – | – | – | – | – | – | – | – | – | – | soluble | poorly soluble | around 3.4 |
